Values after ≈ are worked out from the molar mass of the structure shown. Active and inactive are the calls of the source. No cut-off for these calls is given here.
Columns and labels:
Escherichia coli [1] = assay: Antimicrobial activity against Escherichia coli BW25113 by broth liquid microdilution method; format: functional
Staphylococcus aureus [2] = assay: microbe, parasite or virus in culture; settings: NRS384
Description: Antimicrobial activity against methicillin-resistant Staphylococcus aureus NRS384 by broth liquid microdilution method

Escherichia coli [3] = assay: Antimicrobial activity against Escherichia coli JW55031 harboring deltatolC mutant by broth liquid microdilution method; format: functional
Staphylococcus aureus [4] = assay: Antimicrobial activity against vancomycin-resistant Staphylococcus aureus 10 by broth liquid microdilution method; format: functional
Staphylococcus aureus [5] = assay: microbe, parasite or virus in culture; settings: ATCC 6538
Description: Antimicrobial activity against methicillin-sensitive Staphylococcus aureus ATCC 6538 by broth liquid microdilution method

Staphylococcus aureus [6] = assay: Bactericidal activity against methicillin-resistant Staphylococcus aureus USA400 assessed as 3 log reduction in number of colony forming units at 5 times MIC incubated for 10 hrs by aliquots transfer to tryptic soy agar and grown for 18 to 20 hrs by Time-kill assay relative to control; format: functional; parameters: scale not given: the % may be the effect or the level left
Enterococcus faecium = assay: Antimicrobial activity against vancomycin-resistant Enterococcus faecium ATCC 700221 by broth liquid microdilution method; format: functional
Staphylococcus aureus [7] = assay: microbe, parasite or virus in culture; settings: NRS 386
Description: Antimicrobial activity against methicillin-resistant Staphylococcus aureus NRS 386 by broth liquid microdilution method

Staphylococcus aureus [8] = assay: microbe, parasite or virus in culture; settings: NRS119
Description: Antimicrobial activity against methicillin-resistant Staphylococcus aureus NRS119 by broth liquid microdilution method

Staphylococcus aureus [9] = assay: Antimicrobial activity against vancomycin-resistant Staphylococcus aureus 12 by broth liquid microdilution method; format: functional
Listeria monocytogenes = assay: Antimicrobial activity against Listeria monocytogenes ATCC 19111 by broth liquid microdilution method; format: functional
Staphylococcus aureus [10] = assay: Bactericidal activity against methicillin-resistant Staphylococcus aureus USA400 assessed as reduction in number of colony forming units at 5 times MIC incubated for 24 hrs by aliquots transfer to tryptic soy agar and grown for 18 to 20 hrs by Time-kill assay; format: functional, organism-based
Streptococcus pneumoniae [11] = assay: Antimicrobial activity against cephalosporin-resistant Streptococcus pneumoniae ATCC 51916 by broth liquid microdilution method; format: functional
Enterococcus faecalis = assay: microbe, parasite or virus in culture; settings: ATCC 51299
Streptococcus pneumoniae [12] = assay: Antimicrobial activity against methicillin-resistant Streptococcus pneumoniae ATCC 700677 by broth liquid microdilution method; format: functional
Staphylococcus aureus [13] = assay: microbe, parasite or virus in culture; settings: NRS 107
Description: Antimicrobial activity against methicillin-sensitive Staphylococcus aureus NRS 107 by broth liquid microdilution method

Staphylococcus aureus [14] = assay: microbe, parasite or virus in culture; settings: NRS123
Description: Antimicrobial activity against methicillin-resistant Staphylococcus aureus NRS123 by broth liquid microdilution method

[15] = system: Staphylococcus epidermidis; assay: Antimicrobial activity against methicillin-resistant Staphylococcus epidermidis NRS101 by broth liquid microdilution method; format: functional
Staphylococcus aureus [16] = assay: microbe, parasite or virus in culture; settings: NRS 385
Description: Antimicrobial activity against methicillin-resistant Staphylococcus aureus NRS 385 by broth liquid microdilution method

C/C(=N\NC(=N)N)c1sc(-c2ccc(C#CCCN3CCCCC3C)cc2)nc1C (centres undefined)
MIC (Escherichia coli [1]): > 64 µg/mL
MIC (Staphylococcus aureus [2]): 16 µg/mL (≈ 37.9 µM)
MIC (Escherichia coli [3]): 32 µg/mL (≈ 75.7 µM)

C/C(=N\NC(=N)N)c1sc(-c2ccc(OCCCCn3ccnc3)cc2)nc1C
MIC (Escherichia coli [1]): > 64 µg/mL
MIC (Staphylococcus aureus [2]): 16 µg/mL (≈ 38.9 µM)
MIC (Escherichia coli [3]): 32 µg/mL (≈ 77.8 µM)

C/C(=N\NC(=N)N)c1sc(-c2ccc(C#CCCN3CCCCCC3)cc2)nc1C
MIC (Escherichia coli [1]): > 64 µg/mL
MIC (Staphylococcus aureus [2]): 8 µg/mL (≈ 18.9 µM)
MIC (Escherichia coli [3]): 64 µg/mL (≈ 151 µM)

C/C(=N\NC(=N)N)c1sc(-c2ccc(OCCCCN3CCCC(C)C3)cc2)nc1C (centres undefined)
MIC (Escherichia coli [1]): > 64 µg/mL
MIC (Staphylococcus aureus [2]): > 64 µg/mL
MIC (Escherichia coli [3]): > 64 µg/mL

C/C(=N\NC(=N)N)c1sc(-c2ccc(OCCCN3CCC3)cc2)nc1C
MIC (Escherichia coli [1]): > 64 µg/mL
MIC (Staphylococcus aureus [2]): 8 µg/mL (≈ 20.7 µM)
MIC (Escherichia coli [3]): 64 µg/mL (≈ 166 µM)

C/C(=N\NC(=N)N)c1sc(-c2ccc(C#CCCN3CCCCC3)cc2)nc1C
MIC (Escherichia coli [1]): > 64 µg/mL
MIC (Staphylococcus aureus [2]): 8 µg/mL (≈ 19.6 µM)
MIC (Escherichia coli [3]): 32 µg/mL (≈ 78.3 µM)

C/C(=N\NC(=N)N)c1sc(-c2ccc(OCCCN3CCCCC3C)cc2)nc1C (centres undefined)
MIC (Escherichia coli [1]): > 64 µg/mL
MIC (Staphylococcus aureus [2]): 64 µg/mL (≈ 149 µM)
MIC (Escherichia coli [3]): > 64 µg/mL

C/C(=N\NC(=N)N)c1sc(-c2ccc(OCCCCCN3CCCC3)cc2)nc1C
MIC (Escherichia coli [1]): > 64 µg/mL
MIC (Staphylococcus aureus [2]): > 64 µg/mL
MIC (Escherichia coli [3]): > 64 µg/mL

C/C(=N\NC(=N)N)c1sc(-c2ccc(OCCCN3CCOCC3)cc2)nc1C
MIC (Escherichia coli [1]): > 64 µg/mL
MIC (Staphylococcus aureus [2]): 64 µg/mL (≈ 154 µM)
MIC (Escherichia coli [3]): > 64 µg/mL

C/C(=N\NC(=N)N)c1sc(-c2ccc(OCCCN3CCSCC3)cc2)nc1C
MIC (Escherichia coli [1]): > 64 µg/mL
MIC (Staphylococcus aureus [2]): 32 µg/mL (≈ 74 µM)
MIC (Escherichia coli [3]): 64 µg/mL (≈ 148 µM)

C/C(=N\NC(=N)N)c1sc(-c2ccc(OCCCN3CCSC3)cc2)nc1C
MIC (Escherichia coli [1]): > 64 µg/mL
MIC (Staphylococcus aureus [2]): 16 µg/mL (≈ 38.2 µM)
MIC (Escherichia coli [3]): 32 µg/mL (≈ 76.4 µM)

C/C(=N\NC(=N)N)c1sc(-c2ccc(OCCCCCN3CCC3)cc2)nc1C
MIC (Escherichia coli [1]): > 64 µg/mL
MIC (Staphylococcus aureus [2]): 32 µg/mL (≈ 77.2 µM)
MIC (Escherichia coli [3]): 64 µg/mL (≈ 154 µM)

C/C(=N\NC(=N)N)c1sc(-c2ccc(OCCCCCN3CCSC3)cc2)nc1C
MIC (Escherichia coli [1]): > 64 µg/mL
MIC (Staphylococcus aureus [2]): > 64 µg/mL
MIC (Escherichia coli [3]): > 64 µg/mL

C/C(=N\NC(=N)N)c1sc(-c2ccc(OCCCn3ccnc3)cc2)nc1C
MIC (Escherichia coli [1]): > 64 µg/mL
MIC (Staphylococcus aureus [2]): 32 µg/mL (≈ 80.5 µM)
MIC (Escherichia coli [3]): > 64 µg/mL

C/C(=N\NC(=N)N)c1sc(-c2ccc(OCCCCCN3CCC(C)CC3)cc2)nc1C
MIC (Escherichia coli [1]): > 64 µg/mL
MIC (Staphylococcus aureus [2]): 32 µg/mL (≈ 70.1 µM)
MIC (Escherichia coli [3]): 64 µg/mL (≈ 140 µM)

C/C(=N\NC(=N)N)c1sc(-c2ccc(OCCCCN3CCSC3)cc2)nc1C
MIC (Escherichia coli [1]): > 64 µg/mL
MIC (Staphylococcus aureus [2]): > 64 µg/mL
MIC (Escherichia coli [3]): > 64 µg/mL

C/C(=N\NC(=N)N)c1sc(-c2ccc(C#CCCN3CCSC3)cc2)nc1C
MBC (Staphylococcus aureus [4]): 32 µg/mL (≈ 77.6 µM)
MIC (Staphylococcus aureus [4]): 4 µg/mL (≈ 9.69 µM)
MBC (Staphylococcus aureus [5]): 32 µg/mL (≈ 77.6 µM)
MIC (Staphylococcus aureus [5]): 4 µg/mL (≈ 9.69 µM)
Activity (Staphylococcus aureus [6]): 99.9%
MBC (Enterococcus faecium): 16 µg/mL (≈ 38.8 µM)
MIC (Enterococcus faecium): 4 µg/mL (≈ 9.69 µM)
MBC (Staphylococcus aureus [7]): 16 µg/mL (≈ 38.8 µM)
MIC (Staphylococcus aureus [7]): 4 µg/mL (≈ 9.69 µM)
MBC (Staphylococcus aureus [8]): 16 µg/mL (≈ 38.8 µM)
MIC (Staphylococcus aureus [8]): 4 µg/mL (≈ 9.69 µM)
MBC (Staphylococcus aureus [9]): 32 µg/mL (≈ 77.6 µM)
MIC (Staphylococcus aureus [9]): 4 µg/mL (≈ 9.69 µM)
MBC (Listeria monocytogenes): 32 µg/mL (≈ 77.6 µM)
MIC (Listeria monocytogenes): 4 µg/mL (≈ 9.69 µM)
MIC (Escherichia coli [1]): 64 µg/mL (≈ 155 µM)
Activity (Staphylococcus aureus [10]): Active
MBC (Streptococcus pneumoniae [11]): 32 µg/mL (≈ 77.6 µM)
MIC (Streptococcus pneumoniae [11]): 8 µg/mL (≈ 19.4 µM)
MBC (Staphylococcus aureus [2]): 32 µg/mL (≈ 77.6 µM)
MIC (Staphylococcus aureus [2]): 4 µg/mL (≈ 9.69 µM)
MBC (Enterococcus faecalis): 32 µg/mL (≈ 77.6 µM)
MIC (Enterococcus faecalis): 8 µg/mL (≈ 19.4 µM)
MBC (Streptococcus pneumoniae [12]): 32 µg/mL (≈ 77.6 µM)
MIC (Streptococcus pneumoniae [12]): 8 µg/mL (≈ 19.4 µM)
MBC (Staphylococcus aureus [13]): 16 µg/mL (≈ 38.8 µM)
MIC (Staphylococcus aureus [13]): 8 µg/mL (≈ 19.4 µM)
MBC (Staphylococcus aureus [14]): 32 µg/mL (≈ 77.6 µM)
MIC (Staphylococcus aureus [14]): 4 µg/mL (≈ 9.69 µM)
MIC (Escherichia coli [3]): 16 µg/mL (≈ 38.8 µM)
MBC [15]: 8 µg/mL (≈ 19.4 µM)
MIC [15]: 2 µg/mL (≈ 4.85 µM)
MBC (Staphylococcus aureus [16]): 16 µg/mL (≈ 38.8 µM)
MIC (Staphylococcus aureus [16]): 4 µg/mL (≈ 9.69 µM)

C/C(=N\NC(=N)N)c1sc(-c2ccc(C#CCCN3CCN(C)CC3)cc2)nc1C
MIC (Escherichia coli [1]): > 64 µg/mL
MIC (Staphylococcus aureus [2]): 16 µg/mL (≈ 37.8 µM)
MIC (Escherichia coli [3]): 32 µg/mL (≈ 75.5 µM)

C/C(=N\NC(=N)N)c1sc(-c2ccc(C#CCCN3CCOCC3)cc2)nc1C
MIC (Escherichia coli [1]): > 64 µg/mL
MIC (Staphylococcus aureus [2]): 32 µg/mL (≈ 77.9 µM)
MIC (Escherichia coli [3]): 64 µg/mL (≈ 156 µM)

C/C(=N\NC(=N)N)c1sc(-c2ccc(OCCCCN3CCN(C)CC3)cc2)nc1C
MIC (Escherichia coli [1]): > 64 µg/mL
MIC (Staphylococcus aureus [2]): 16 µg/mL (≈ 36.1 µM)
MIC (Escherichia coli [3]): 32 µg/mL (≈ 72.1 µM)

C/C(=N\NC(=N)N)c1sc(-c2ccc(OCCCCN3CCOCC3)cc2)nc1C
MIC (Escherichia coli [1]): > 64 µg/mL
MIC (Staphylococcus aureus [2]): > 64 µg/mL
MIC (Escherichia coli [3]): > 64 µg/mL

C/C(=N\NC(=N)N)c1sc(-c2ccc(OCCCCCN3CCC4CCCCC4C3)cc2)nc1C (centres undefined)
MIC (Escherichia coli [1]): > 64 µg/mL
MIC (Staphylococcus aureus [2]): > 64 µg/mL
MIC (Escherichia coli [3]): > 64 µg/mL

C/C(=N\NC(=N)N)c1sc(-c2ccc(OCCCN3CCN(C)CC3)cc2)nc1C
MIC (Escherichia coli [1]): > 64 µg/mL
MIC (Staphylococcus aureus [2]): > 64 µg/mL
MIC (Escherichia coli [3]): > 64 µg/mL

C/C(=N\NC(=N)N)c1sc(-c2ccc(OCCCCCN3CCCCC3)cc2)nc1C
MIC (Escherichia coli [1]): > 64 µg/mL
MIC (Staphylococcus aureus [2]): 16 µg/mL (≈ 36.1 µM)
MIC (Escherichia coli [3]): 16 µg/mL (≈ 36.1 µM)

C/C(=N\NC(=N)N)c1sc(-c2ccc(C#CCCN3CCSCC3)cc2)nc1C
MIC (Escherichia coli [1]): > 64 µg/mL
MIC (Staphylococcus aureus [2]): 32 µg/mL (≈ 75 µM)
MIC (Escherichia coli [3]): 16 µg/mL (≈ 37.5 µM)

C/C(=N\NC(=N)N)c1sc(-c2ccc(OCCCN3CCCC(C)C3)cc2)nc1C (centres undefined)
MIC (Escherichia coli [1]): > 64 µg/mL
MIC (Staphylococcus aureus [2]): 64 µg/mL (≈ 149 µM)
MIC (Escherichia coli [3]): > 64 µg/mL
